Data taken from patent US20260097047A1, “Small molecule inhibitors of the ribosome biogenesis factor NVL2” (Board of Regents, The University of Texas System, priority 2023, published 2026).
Entries after “also recorded” stand apart in the source; their conditions may differ.

Experiments:
p53 and p21 = p53 and p21 protein levels in HCT116 cells; type: cell-based, human
Source text: Inhibition of 60S ribosome biogenesis is known to induce the stability and upregulation of p53, which could serve as a potential pharmacodynamics marker for MM017 in HCT116 cells. […] We used PRISM (Broad Institute) to evaluate the selectivity of MM017 across 902 cancer cell lines and then correlated this selectivity to 1,215 clinical and pre-clinical compounds in the PRISM database. […] These observations indicate that oxaliplatin and carmofur, like MM017, target ribosome biogenesis.

[1] = system: HCT116 control and p53 KO cells; experiment: Cell death by loss in membrane permeability, HCT116 control and p53 KO cells; type: cell-based, human; settings: five-day treatment
mouse NVL = target: T1, mouse NVL (Mus musculus, UniProt Q9DBY8); experiment: Viability of NVL^AID/AID cells relying on ectopic mouse NVL (Ph-IAA); type: cell-based; settings: endogenous NVL degraded with Ph-IAA
T1 construct: expressed in transfected cells; host or cells: HCT116 NVL^AID/AID cells (human cells, viral infection)
Source text: Next, we investigated whether inhibitors of NVL could inhibit the growth of cell line derived xenografts tumors in mice, and whether systemic inhibition of NVL leads to specific toxicities. […] To test the potency of MM927 against mouse NVL within the same cell type, we ectopically expressed either human or mouse NVL in NVL^AID/AID cells. Treatment with Ph-IAA degrades the endogenous protein so that the cells must rely solely on ectopically expressed NVL. In the mock infected cells, degrading NVL^AID/AID by the addition of Ph-IAA reduced cell viability as expected, and the viability was completely rescued by expression of either ectopic mouse or human NVL.

[2] = Drug levels in plasma and tumor at end of efficacy study (NSG mice); type: in vivo, mouse; settings: 3 hours after the last treatment dose, 35 mg/kg IP twice a day for 21 days
Protocol: (§1) Having established the kinetics of MM927 mediated NVL inhibition in xenograft tumors, we administered 35 mg/kg MM927 IP twice a day for 21 days to mice harboring tumors derived from either HCT116 NVL wild type or NVL^R403W cells. […] Taken together, we concluded that the potent, and bioavailable analog MM927 reduces tumor growth in mouse xenografts by inhibiting NVL without toxicity.
Pharmacokinetic studies were performed by dosing 6-7 week old CD-1 female mice with analog MM927 formulated as 10% DMSO/10% Kolliphor EL/10% Solutal/70% D5W via the intraperitoneal route. […] The resulting supernatants were evaluated by LC-MS/MS using a Sciex (Framingham, MA) 4500 Triple Quad coupled to a Shimadzu (Columbia, MD) Prominence LC. Briefly, MM927 was detected in multiple reaction monitoring mode (MRM) using the (m+1) transition 488.059/176.1. […] The concentrations of drug in each time-point sample were quantified using Analyst software (Sciex). […] The limit of quantitation (LOQ) was defined as the lowest concentration at which back calculation yielded a concentration within 20% of theoretical and which was above the LOD. Cmax and AUC values were calculated using the noncompartmental analysis tool of Phoenix WinNonLin (Certara/Pharsight, Sunnyvale, CA). […]

[3] = system: p53 and p21 in HCT116 NVL^WT tumors; experiment: Pharmacodynamic study: p53 and p21 in HCT116 NVL^WT xenograft tumors; type: in vivo, mouse; settings: 35 mg/kg IP
Protocol: Plasma exposure was dose-dependent up to 35 mg/kg (IP injection) reaching a maximum concentration at 17.86 μM. These levels exceed the anti-proliferative IC99 of MM927 in cells expressing either human or mouse NVL. In a subsequent pharmacodynamic (PD) study, we asked if we could assess on-target NVL inhibition via a subsequent p53 and/or p21 induction in tumor xenografts in mice treated with MM927. We implanted HCT116 NVL^WT and NVL^R403W cells subcutaneously on either flank of the mice and evaluated the levels of p53 and p21 in either tumor at various time points after IP administration of 35 mg/kg of MM927.
Pharmacodynamic study: Five million parental HCT116 cells or HCT116 NVL^R403W in a volume of 0.1 mL were implanted using a subcutaneous injection in the left and right side of four-to-eight-week-old male and female NSG mice, respectively. Tumor volumes were measured every 2 to 4 days with calipers. When the tumor diameter reached 0.5 cm in diameter, mice were dosed with 35 mg/kg MM927 or vehicle formulated as 10% DMSO/10% Kolliphor EL/10% Solutal/70% D5W and administered via the intraperitoneal route. At each time point (0, 3, 6, 12, 24 hours post dose), tumors were harvested and flash frozen for Western blot analysis for p53 and p21 as described.

HCT116 NVL^WT tumors = experiment: Efficacy study: HCT116 NVL wild type xenografts; type: in vivo, mouse; settings: 35 mg/kg IP twice a day for 21 days
Protocol: as §1
Efficacy study: Five million parental HCT116 cells or HCT116 NVL^R403W in a volume of 0.1 mL were implanted in the right flank. Tumor volumes were measured every 2 to 4 days with calipers. Volume is calculated as [(L*W^2)*3.14]/6. When volumes reached ˜110 mm^3, treatment was started with 35 mg/kg MM927 or vehicle control (0.2 mL/mouse) twice a day for 21 days. Mice were euthanized at the end of the 21-day treatment period or when any tumor reached 2 cm in its largest diameter, in agreement with the approved animal protocol. At the end of treatment, blood and tumor tissue were collected for pharmacokinetic analysis, measurement of complete blood counts, and blood chemistry measurements as described. Serum alanine transaminase and blood urea nitrogen were analyzed using VITROS MicroSlide technology.

T1 sequence (Q9DBY8 whole entry): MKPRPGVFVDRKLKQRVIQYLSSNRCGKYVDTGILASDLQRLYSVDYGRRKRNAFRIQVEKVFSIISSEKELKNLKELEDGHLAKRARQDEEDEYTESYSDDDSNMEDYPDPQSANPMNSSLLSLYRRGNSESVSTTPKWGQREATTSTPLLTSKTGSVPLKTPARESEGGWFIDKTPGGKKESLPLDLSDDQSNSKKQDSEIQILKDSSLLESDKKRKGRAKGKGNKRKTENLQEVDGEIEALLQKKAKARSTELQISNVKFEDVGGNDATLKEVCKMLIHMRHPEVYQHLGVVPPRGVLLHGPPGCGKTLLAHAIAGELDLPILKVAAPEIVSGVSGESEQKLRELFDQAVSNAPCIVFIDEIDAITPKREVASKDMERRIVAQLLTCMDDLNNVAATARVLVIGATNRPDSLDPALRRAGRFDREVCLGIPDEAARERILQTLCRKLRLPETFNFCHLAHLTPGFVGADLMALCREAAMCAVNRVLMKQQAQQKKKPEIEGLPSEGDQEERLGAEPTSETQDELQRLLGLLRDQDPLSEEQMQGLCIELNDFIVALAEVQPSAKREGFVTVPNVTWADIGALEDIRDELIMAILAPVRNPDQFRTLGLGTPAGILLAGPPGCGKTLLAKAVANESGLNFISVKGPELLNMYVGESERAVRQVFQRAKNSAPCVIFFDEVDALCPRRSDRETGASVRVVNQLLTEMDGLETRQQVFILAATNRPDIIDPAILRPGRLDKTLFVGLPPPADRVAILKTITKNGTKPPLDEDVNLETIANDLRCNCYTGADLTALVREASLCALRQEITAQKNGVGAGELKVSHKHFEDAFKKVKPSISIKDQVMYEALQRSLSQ

## COCCN1C(=O)c2ccccc2Sc2cc(NC(=O)c3ccoc3)ccc21 [MM017]
p53 and p21
  p53 levels in parental HCT116 cells: upregulates p53 levels; also recorded: increase in p53 at 6 hours post treatment; also recorded: dose-dependent increase in the levels of p53
p53 and p21; NVL^P307T
  p53 and p21 abundance in NVL^P307T cells: no changes in the abundance of either protein
[1]
  cell death in p53 KO versus control cells: substantially lower in p53 KO cells

## CC#CCN1C(=O)c2ccc(F)cc2Sc2cc(NC(=O)c3ccc4oc(=O)n(C)c4c3)ccc21 [MM927, N-(10-(But-2-yn-1-yl)-3-fluoro-11-oxo-10,11-dihydrodibenzo[b,f][1,4]thiazepin-7-yl)-3-methyl-2-oxo-2,3-dihydrobenzo[d]oxazole-5-carboxamide]
Mouse NVL
  IC50: 207 nM
[2]
  level in plasma and tumor: micromolar levels
[3]
  p53 and p21 time course in NVL^WT tumor: remained elevated at 12 hours and decreased to basal levels by 24 hours
  p53 protein levels in NVL^WT tumor: increased 3 hours after injection
HCT116 NVL^WT tumors
  endpoint tumor burden, NVL WT: significantly reduced NVL WT tumor burden
  rate of growth of NVL^WT tumors: significantly reduced the rate of growth
